Values of other authors in patent US20090142391A1, “Conjugated RNAi Therapeutics” (priority 2007, published 2009).

Conditions: in the blood

C=CC[C@@H]1/C=C(\C)C[C@H](C)C[C@H](OC)[C@H]2O[C@@](O)(C(=O)C(=O)N3CCCC[C@H]3C(=O)O[C@H](/C(C)=C/[C@@H]3CC[C@@H](O)[C@H](OC)C3)[C@H](C)[C@@H](O)CC1=O)[C@H](C)C[C@@H]2OC [FK506]
distribution into protected cellular compartments: 72-98%
